Laboratory results: ChEMBL document CHEMBL1128989, “-Methanesulfonyl-L-valine as a novel, unnatural amino acid surrogate for P2 in the design of HIV protease inhibitors” (Bioorg Med Chem Lett, 1996)

Tests used:
[1] = test system: Human immunodeficiency virus 1; assay: Antiviral activity against PBMC infected with Human immunodeficiency virus type 1 NL4-3 isolate.; type: functional
[2] = target: Human immunodeficiency virus type 1 protease (Human immunodeficiency virus 1, UniProt Q72874); assay: Inhibitory activity against P2 site in HIV protease.
[3] = Ratio of IC50/Ki was determined

Row | Structure (SMILES) | CIC IC50 [1] [nM] | Ki [2] [nM] | Ratio [3]
1 | CC(C)[C@H](NC(=O)c1ccc2ccccc2n1)C(=O)N[C@@H](Cc1ccccc1)[C@H](O)CN1C[C@H]2CCCC[C@H]2C[C@H]1C(=O)NC(C)(C)C | 54 | 0.55 | 98
2 | CC(C)(C)NC(=O)[C@@H]1C[C@@H]2CCCC[C@@H]2CN1C[C@@H](O)[C@H](Cc1ccccc1)NC(=O)[C@H](CC(N)=O)NC(=O)c1ccc2ccccc2n1 | 23 | – | –
3 | CSC(C)(C)[C@H](NC(=O)c1ccc2ccccc2n1)C(=O)N[C@@H](Cc1ccccc1)[C@H](O)CN1C[C@H]2CCCC[C@H]2C[C@H]1C(=O)NC(C)(C)C | 27 | 2.59 | 10
4 | CC(C)(C)NC(=O)[C@@H]1C[C@@H]2CCCC[C@@H]2CN1C[C@@H](O)[C@H](Cc1ccccc1)NC(=O)[C@H](CS(C)(=O)=O)NC(=O)c1ccc2ccccc2n1 | 22 | 0.113 | 195
5 | CC(C)(C)NC(=O)[C@@H]1C[C@@H]2CCCC[C@@H]2CN1C[C@@H](O)[C@H](Cc1ccccc1)NC(=O)[C@@H](NC(=O)c1ccc2ccccc2n1)C(C)(C)S(C)(=O)=O | 4.9 | 0.172 | 28
6 | CC(C)(C)NC(=O)[C@@H]1C[C@@H]2CCCC[C@@H]2CN1C[C@@H](O)[C@H](Cc1ccccc1)NC(=O)[C@@H](NC(=O)OCc1ccccc1)C(C)(C)S(C)(=O)=O | 11 | 0.162 | 68
